Assay results taken from ChEMBL document CHEMBL1122436, “Structure-activity studies of dermorphin. Synthesis and some pharmacological data of dermorphin and its 1-substituted analogues” (J Med Chem, 1983).

Experiments:
Type in all cases: functional
Cavia porcellus [1] = organism: Cavia porcellus; experiment: Inhibition of electrically evoked twitches in guinea pig ileum relative to morphine.
Mus musculus = organism: Mus musculus; experiment: Analgesic activity in mice by using hot plate method
Cavia porcellus [2] = organism: Cavia porcellus; experiment: Inhibition of twitches in guinea pig ileum

Row | Structure (SMILES) | Relative potency (Cavia porcellus [1]) | ED50 (Mus musculus) [M/kg] | IC50 (Cavia porcellus [2]) [nM]
1 | CC(=O)N[C@@H](Cc1ccc(O)cc1)C(=O)N[C@H](C)C(=O)N[C@@H](Cc1ccccc1)C(=O)NCC(=O)N[C@@H](Cc1ccc(O)cc1)C(=O)N1CCC[C@H]1C(=O)N[C@@H](CO)C(N)=O | 0.0044 | >0.001 | 
2 | CN1CC[C@]23c4c5ccc(O)c4O[C@H]2[C@@H](O)C=C[C@H]3[C@H]1C5 [MORPHINE] |  | 1.7e-06 | 
3 | C[C@H](N)C(=O)N[C@H](C)C(=O)N[C@@H](Cc1ccccc1)C(=O)NCC(=O)N[C@@H](Cc1ccc(O)cc1)C(=O)N1CCC[C@H]1C(=O)N[C@@H](CO)C(N)=O | 0.0017 | 6.1e-05 | 
4 | CSCC[C@H](NC(=O)[C@H](Cc1ccccc1)NC(=O)CNC(=O)[C@@H](C)NC(=O)[C@@H](N)Cc1ccc(O)cc1)C(N)=O | 30 |  | 2.5
5 | C[C@@H](NC(=O)[C@H](N)Cc1ccccc1)C(=O)N[C@@H](Cc1ccccc1)C(=O)NCC(=O)N[C@@H](Cc1ccc(O)cc1)C(=O)N1CCC[C@H]1C(=O)N[C@@H](CO)C(N)=O | 0.0042 | >0.001 | 
6 | C[C@@H](NC(=O)[C@@H](N)Cc1ccc(O)cc1)C(=O)N[C@@H](Cc1ccccc1)C(=O)NCC(=O)N[C@@H](Cc1ccc(O)cc1)C(=O)N1CCC[C@H]1C(=O)N[C@@H](CO)C(N)=O [DERMORPHIN] | 1440 | 9.5e-07 | 0.052
7 | C[C@@H](NC(=O)[C@@H](N)Cc1ccccc1)C(=O)N[C@@H](Cc1ccccc1)C(=O)NCC(=O)N[C@@H](Cc1ccc(O)cc1)C(=O)N1CCC[C@H]1C(=O)N[C@@H](CO)C(N)=O | 0.026 | 1.55e-05 | 
8 | COc1ccc(C[C@H](N)C(=O)N[C@H](C)C(=O)N[C@@H](Cc2ccccc2)C(=O)NCC(=O)N[C@@H](Cc2ccc(O)cc2)C(=O)N2CCC[C@H]2C(=O)N[C@@H](CO)C(N)=O)cc1 | 40.5 | 6e-05 | 
